# “Also recorded” adds a separate entry of the source.
# Experiments:
# [1] = system: vEDS mice; assay: Survival of drug-treated vEDS mice (death due to aortic dissection); assay type: in vivo, mouse; details: for protection from dissection or death: vEDS mice, dose not stated (early data); for survival rate: after about 30 days (1 month) of treatment
# Protocol: Novel knock-in glycine substitution (Col3a1 G209S/+ and Col3a1 G938D/+) vEDS mice were created using CRISPR/Cas9.
# To introduce each mutation, 3 guide RNAs (tracrRNA+crRNA) were designed to target the DNA regions flanking the intended mutation site. A DNA oligo repair template (ssDNA oligo) was also designed that included homologous sequences upstream and downstream of the target region, as well as the intended mutation. Pronuclear injection of one-cell C57BL/6J embryos was performed by the JHU Transgenic Core using standard microinjection techniques using a mix of Cas9 protein, tracrRNA, crRNA, and ssDNA oligo diluted in RNAse free injection buffer. Injected embryos were transferred into the oviducts of pseudopregnant ICR females using established techniques. Sanger sequencing of the site was utilized to confirm introduction of the mutation, and the mice were backcrossed for at least 4 generations to eliminate off-target effects. For the G209S mouse, the mutation introduced was c.625_626 GG>TC, corresponding to p.Gly210Ser in humans. For the G938D mouse, the mutation introduced was c.2813G>A, corresponding to […] in humans. The Wild-type Human Col3a1 mRNA NCBI Accession No: NM_000090.3; the wild-type Mouse Col3a1 mRNA NCBI Accession No.: NM_009930.2.
# Pharmacological ERK antagonists were tested to support the role of ERK activation in the pathogenesis of vEDS and as a method to identify therapeutic strategies for vEDS. Mice were treated with cobimetinib [GDC-0973, RO5514041] (2 mg/kg/day), an FDA-approved inhibitor of MEK, the kinase that activates ERK^8. It was hypothesized that if ERK activation was truly driving disease risk, ERK inhibition would rescue the risk of death from aortic dissection.
# Next, further studies were performed to test agents that inhibit PKC activation. Mice were treated with ruboxistaurin [LY 333531] […] It was hypothesized that if ERK activation, and thereby disease risk, was driven by PLC/IP3/PKC activation, a pharmacologic PKC inhibitor would also rescue the risk of death from aortic dissection.
# Further studies were performed to test other medications that inhibit this signaling cascade.
# [2] = system: patients with vEDS; details: small human study; cited from earlier work
# [3] = system: Col3a1^G209S/+ mice; assay: Risk of aortic dissection in Col3a1 G209S/+ mice; assay type: in vivo, mouse; details: celiprolol; Col3a1 G209S/+ mutation
# Excerpt: Others have proposed^5-8 that vEDS phenotypes are a result of chronically “weak” tissue and therefore propose that decreasing blood pressure with beta-adrenergic receptor blockers should decrease the risk of aortic rupture in these patients. […] Since this was not common to all β antagonists, this observation could be driven by celiprolol's β2 agonism activity.
# [4] = Blood pressure / hemodynamic stress in treated vEDS mice; assay type: in vivo, mouse; details: for hemodynamic stress: dose not stated; for effect on blood pressure: doses as in the survival studies
# [5] = system: vEDS mice, first 30 days postpartum; assay: Postpartum survival of lactating vEDS mice (pregnancy/breastfeeding model); assay type: in vivo, mouse
# Excerpt: Previously, it was shown that pregnancy-associated aortic dissection is largely driven by lactation-associated oxytocin release and oxytocin-induced ERK signaling in MFS mouse aortas^11. Thus, oxytocin-induced ERK signaling was used as a method to test whether activation of the PLC/IP3/PKC/ERK axis would worsen the risk of aortic dissection.
# Oxytocin-induced ERK signaling was used as a method to test the hypothesis that activation of the PLC/IP3/PKC/ERK axis would worsen the risk of aortic dissection.
# [6] = system: MFS mice; details: cited from earlier work
# [7] = system: 129 MFS mice; assay: Aortic root growth in Marfan syndrome mice; assay type: in vivo, mouse; details: ruboxistaurin 10 mg/kg/d, p=2E-4
# Excerpt: In examples, different PKC-β inhibitors are used for the treatment of Marfan Syndrome. For example, treatment of Marfan Syndrome may include administration of ruboxistaurin. […] In other examples, treatment of Marfan Syndrome includes administration of enzastaurin or sotrastaurin.
compound,measurement,setting,value
CCN(CC)C(=O)Nc1ccc(OCC(O)CNC(C)(C)C)c(C(C)=O)c1 (stereo not drawn) [celiprolol],improvement in survival,[1]; celiprolol 200 mg/kg/d,none of these manipulations lead to an improvement in survival
same,risk of aortic dissection,"[1]; celiprolol 200 mg/kg/d, vEDS mouse models",accelerated the risk of aortic dissection
same,protection from dissection or death,[1],significant acceleration of dissection and death
same,adverse events in patients with vEDS,[2],potential to delay adverse events
same,risk of aortic dissection,[3],increased risk of aortic dissection
same,hemodynamic stress,[4],achieved the predicted lowering of hemodynamic stress
same,effect on blood pressure,[4],decreases in blood pressure
NNc1nncc2ccccc12 [hydralazine],survival,"[1]; hydralazine 32 mg/kg/d, at 45 days of age, the median survival for an untreated vEDS mouse",98%
same,survival in male mice,[1]; hydralazine-only (32 mg/kg/d) treated male mice,24%
same,survival postpartum,"[5]; hydralazine 16 mg/kg/day, first 30 days postpartum, 60% lethality untreated",95%
CC(O)(CS(=O)(=O)c1ccc(F)cc1)C(=O)Nc1ccc(C#N)c(C(F)(F)F)c1 (stereo not drawn) [bicalutamide],survival in male mice,"[1]; bicalutamide alone, male mice",~80%
CCCCc1nc(Cl)c(CO)n1Cc1ccc(-c2ccccc2-c2nn[nH]n2)cc1 [losartan],impact on survival,[1]; losartan 60 mg/kg/d,no impact on survival
same,protection from dissection or death,[1],no evidence of protection from dissection or death
same,aortic disease in MFS mice,"[6]; MFS mice, literature refs 3-6",can suppress aortic disease
same,protection in mouse models of MFS or LDS,[6]; mouse models of MFS or LDS,afford dramatic protection
same,hemodynamic stress,[4],achieved the predicted lowering of hemodynamic stress
"des Gly-NH2,d(CH2)5[D-Tyr2,Thr4]OVT",survival postpartum,"[5]; oxytocin receptor antagonist, first 30 days postpartum, mice still lactating",95%
CC(=O)Nc1cccc(-n2c(=O)n(C3CC3)c(=O)c3c(Nc4ccc(I)cc4F)n(C)c(=O)c(C)c32)c1 [trametinib],survival postpartum,"[5]; trametinib 1 mg/kg/day, first 30 days postpartum, 60% lethality untreated",95%
"Cn1cc(C2=C(c3cn(C4CCN(Cc5ccccn5)CC4)c4ccccc34)C(=O)NC2=O)c2ccccc21 [enzastaurin, 3-(1-Methylindol-3-yl)-4-[1-[1-(pyridin-2-ylmethyl)piperidin-4-yl]indol-3-yl]pyrrole-2,5-dione]",survival,"[1]; enzastaurin 60 mg/kg/d, after 40 days of treatment, 50% of untreated vEDS mice, p=0.0305",80%
same,survival rate,[1]; enzastaurin about 30 mg/kg/day orally,about 100%
COC(=O)c1ccc2c(c1)NC(=O)/C2=C(\Nc1ccc(N(C)C(=O)CN2CCN(C)CC2)cc1)c1ccccc1 [nintedanib],impact on survival,[1]; nintedanib 50 mg/kg/d,no impact on survival
CCOC(=O)N[C@@H]1CC[C@@H]2[C@@H](C1)C[C@H]1C(=O)O[C@H](C)[C@H]1[C@H]2/C=C/c1ccc(-c2cccc(F)c2)cn1 [vorapraxar],impact on survival,[1]; vorapraxar 1 mg/kg/d,no impact on survival
"CN(C)C[C@@H]1CCn2cc(c3ccccc32)C2=C(C(=O)NC2=O)c2cn(c3ccccc23)CCO1 [ruboxistaurin, (9S)-9-[(dimethylamino)methyl]-6,7,10,11-tetrahydro-9H,18H-5,21:12,17-di(metheno)dibenzo[e,k]pyrrolo[3,4-h][1,4,13]oxadiazacyclohexadecine-18,20-dione]",survival,"[1]; ruboxistaurin 10 mg/kg/day, after 39 days of treatment, 55% survival with no treatment",100%
same,aortic root growth,[7],reduces aortic root growth; also recorded: rescued the aortic root growth
same,effect on blood pressure,[4],Neither cobimetinib nor ruboxistaurin had an effect on blood pressure
O=C(c1ccc(F)c(F)c1Nc1ccc(I)cc1F)N1CC(O)([C@@H]2CCCCN2)C1 [cobimetinib],survival,"[1]; cobimetinib 2 mg/kg/day, after 45 days of treatment, 55% survival with no treatment",94%
same,effect on blood pressure,[4],Neither cobimetinib nor ruboxistaurin had an effect on blood pressure
CC(C)NCC(O)COc1ccc(CC(N)=O)cc1 (stereo not drawn) [atenolol],improvement in survival,[1]; atenolol 120 mg/kg/d,none of these manipulations lead to an improvement in survival
same,effect on blood pressure,[4],decreases in blood pressure
CC(C)NCC(O)COc1cccc2ccccc12 (stereo not drawn) [propranolol],improvement in survival,[1]; propranolol 80 mg/kg/d,none of these manipulations lead to an improvement in survival
same,survival postpartum,"[5]; propranolol, after 30 days postpartum, vs. 50% survival",46%
same,effect on postpartum survival,"[5]; propranolol, first 30 days postpartum, mice still lactating",does not improve survival; also recorded: did not affect survival
same,effect on blood pressure,[4],lowers blood pressure; also recorded: decreases in blood pressure
COc1ccccc1Oc1c(NS(=O)(=O)c2ccc(C(C)(C)C)cc2)nc(-c2ncccn2)nc1OCCO [bosentan],survival,"[1]; bosentan 100 mg/kg/d, after 40 days of treatment, 50% survival in untreated vEDS mice, p=0.0298",80%
CN1CCN(c2nc(C3=C(c4c[nH]c5ccccc45)C(=O)NC3=O)c3ccccc3n2)CC1 [sotrastaurin],survival rate,[1]; sotrastaurin about 30 mg/kg/day orally,about 100%
CC(=O)S[C@@H]1CC2=CC(=O)CC[C@]2(C)[C@H]2CC[C@@]3(C)[C@@H](CC[C@@]34CCC(=O)O4)[C@H]12 [spironolactone],survival,[1]; spironolactone alone 100 mg/kg/d,~80%

# — US11938135B2, “Compositions and methods for treating vascular Ehlers Danlos syndrome and associated disorders” (The Johns Hopkins University, priority 2018, dated 2024)
